The source of these data is patent US8492510B2, “Multifunctional degradable nanoparticles with control over size and functionalities” (Vanderbilt University, priority 2007, dated 2013).

For the assay, the system named is human microvascular endothelial cells (HMEC). In words: Internalization into HMEC, temperature effect and control experiments (confocal microscopy). It is filed as cell-based. The settings on record: 10 uM, 60 min, 37° C. As to the method: The human microvascular endothelial cells (HMEC) cells were incubated with conjugates (10 uM) for 2.5 min at 4° C. or at 37° C.
The HMEC cells were incubated with conjugates (1 uM) for 30 min at 4° C. or at 37° C.
(b) The HMEC cells were incubated with Boc-protected guanidinylated FD-2 (10 uM) for 60 min at 37° C.
Internalization of FD-1 and FD-2 in mammalian cells was assessed using two different cell lines and a previously described method [Futaki, S.; Nakase, I.; Suzuki, T.; Youjun, Y.; Sugiura, Y. Biochemistry 2002, 41, 7925.] with NIH-3T3 fibroblasts and HMEC (human microvascular endothelial cells) and a Zeiss LSM 510 confocal microscope. […] [Futaki, S.; Nakase, I.; Suzuki, T.; Youjun, Y.; Sugiura, Y. Biochemistry 2002, 41, 7925; Vivès, E.; Brodin, P.; Lebleu, B. J. Biol. Chem. 1997, 272, 16010.] Furthermore, the extent of internalization increased in an incubation time-dependent manner, and it was observed that after just 10 min, the fluorescence intensity of cells treated with FD-2 was near saturation. […] L. Org. Lett. 2005, 7, 4815.] but also regulate the subcellular localization of the molecule and its putative cargo. […] Therefore, the dendrimer with a hexyl spacer crosses the cell membrane faster than the molecule with an ethyl chain. On the other hand, the localization patterns can also be controlled by the length of the spacer. […]

As for fluorescein isothiocyanate [free FITC], the “fluorescence of cells in control experiments” value was “no”.
